Data from PMC4642645, “Oxacillin sensitization of methicillin-resistant Staphylococcus aureus and methicillin-resistant Staphylococcus pseudintermedius by antisense peptide nucleic acids in vitro” (BMC Microbiology, 2015).

Assays:
MRSP isolates = conditions: cited from earlier work
Description: In the MRSP strain HH-1, PNAs were effective at much lower concentrations compared to NCTC 13142. This is presumably due to differences in cell wall structures, as passage across the cell wall is considered to be the main limiting factor for PNA efficacy. Another indication of cell wall differences is that scrambled PNAs affected cell viability of HH-1 without affecting transcript levels of mecA or ftsZ (i.e. non-specific toxic effect).

NCTC 13142 [1] = test: Oxacillin sensitization viable count assay (CFU on oxacillin plates); format: cell-based, Staphylococcus aureus (MRSA); conditions: 6 h, plated on 16 μg/ml oxacillin, n = 3
Description: (§1) The viable count assay is more sensitive than the broth assay and was used to assess the effects of PNAs that performed well in the initial screen described above. In the viable count assay, 5 × 10^5 CFU/ml per well of culture was treated either with 2.5, 5 and 7.5 μM of PNA for NCTC 13142, or 1, 2.5 and 5 μM of PNA for HH-1 in MHB at 35 °C for 6 h. […] Agar plates were incubated at 35 °C for 24 h, and dilutions resulting in 30–300 colonies per plate were used to determine the viable count. Experimental repeats were carried out on separate days, and reductions in CFU of treated cultures were normalized to CFU of the untreated control culture on the day. Statistical analysis of CFU reductions was carried out with the paired Student’s t-Test in Microsoft Excel.

HH-1 [2] = test: as above; format: cell-based, Staphylococcus pseudintermedius (MRSP)
Description: as §1

ftsZ mRNA [3] = test: ftsZ mRNA level by RT-qPCR; format: cell-based, Staphylococcus aureus (MRSA) NCTC 13142; conditions: NCTC 13142, 7.5 μM PNA, no oxacillin, compared to untreated or scrZ-treated cells, n = 3
Description: (§2) Growth of cultures in a 96 well plate was monitored by reading the optical density at 550 nm every 5 min, after shaking for 5 s in a microplate reader (Spectramax 340PC, […]). Cultures were harvested when the untreated control culture increased in OD550 ≈ 0.1. Cultures with the same PNA treatment but in different wells across the 96 well plate were pooled for total RNA extraction and DNase I treatment (Ribopure™ Bacteria kit, Life Technologies). RNA was checked for gDNA contamination by qPCR using gyrA primers (Additional file 1: Table S1) and SsoFast™ EvaGreen® Supermix (Bio-Rad) before cDNA synthesis using 50 ng RNA and iScript™ Reverse Transcription Supermix (Bio-Rad). Samples of cDNA were diluted 10-fold and 4 μl used in each qPCR reaction. […]
(§3) Primer pairs for qPCR were designed by Primer3 with a Tm of 60 °C and product sizes of 100–200 bp (Additional file 1: Table S1). […] Primer efficiencies were determined using 10-fold serial dilutions of cDNA (10 pg-1 μg). […]
(§4) Total RNA and cDNA were prepared as described above. Raw Cq values were analysed in qbase + (Biogazelle, Belgium) with user-defined primer efficiencies (Additional file 1: Table S1) and expression stabilities (M value) of each candidate reference gene fabD, gyrA, proC, pta, pyk, rho, sodA, and tpiA were calculated as the average pairwise variation for each gene with all other tested genes. […]

ftsZ mRNA [4] = test: ftsZ mRNA level by RT-qPCR; format: cell-based, Staphylococcus pseudintermedius (MRSP) HH-1; conditions: HH-1, 2.5 μM PNA, no oxacillin, compared to untreated or scrZ-treated cells, n = 3
Description: as §2, §3, §4

NCTC 13142 [5] = test: Growth inhibition assay (OD550 growth curves); format: cell-based, Staphylococcus aureus (MRSA); conditions: NCTC 13142, MHB with 6 μg/ml oxacillin, PNA 0–7.5 μM, 35 °C, 6 h, OD550, n = 3
Description: (§5) Anti-ftsZ PNAs were tested for effects on growth. Overnight MHB cultures were adjusted to 5 × 10^5 CFU/ml per well of a 96 well plate in MHB supplemented with 6 μg/ml oxacillin as described above. Anti-ftsZ PNA was added to final concentrations of 0, 1, 2.5, 5, 7.5 μM and incubated in a microplate reader (Spectramax 340PC, Molecular Devices) at 35 °C for 6 h. The optical density of the cultures was monitored at 550 nm with readings every 5 min after shaking for 5 s.

HH-1 [6] = test: Growth inhibition assay (OD550 growth curves); format: cell-based, Staphylococcus pseudintermedius (MRSP); conditions: HH-1, MHB with 6 μg/ml oxacillin, PNA 0–7.5 μM, 35 °C, 6 h, OD550, n = 3
Description: as §5

NCTC 13142 [7] = test: Light microscopy of Gram stained cells (cell morphology); format: cell-based, Staphylococcus aureus (MRSA); conditions: NCTC 13142, 7.5 μM PNA, 6 h at 35 °C, 1000 × magnification
Description: (§6) Bacterial cultures were treated with anti-ftsZ PNA Z46 in broth as described in the viable count assay. After 6 h at 35 °C, cultures were pelleted, washed once in PBS, and re-suspended in 1/10 of original volume of the culture in PBS. Ten microliter aliquots were heat-fixed, Gram stained, and viewed under a light microscope (Olympus BX60) at 1000 × magnification. Images were captured using the Image-Pro Plus 5.0 (MediaCybernetics), and counting of purple and pink cells were carried out using ImageJ 1.44o (National Institute of Health, USA).

HH-1 [8] = test: as above; format: cell-based, Staphylococcus pseudintermedius (MRSP); conditions: HH-1, 2.5 μM PNA, 6 h at 35 °C, 1000 × magnification
Description: as §6

Row | Substance | MIC against MRSP isolates (MRSP isolates) [µM] | CFU reduction of NCTC 13142 (NCTC 13142 [1]; 7.5 μM PNA, ratio to untreated control, mean) [%] | Sensitization to oxacillin (CFU reduction), result in words (NCTC 13142 [1]; NCTC 13142, PNA 2.5, 5, 7.5 μM (Z46: 7.5 μM)) | MRSP cells killed by oxacillin (HH-1 [2]; 2.5 μM PNA, 6 h at 35 °C, plated on MH agar with 16 μg/ml oxacillin, relative to untreated control) [%] | Sensitization to oxacillin (CFU reduction), result in words (HH-1 [2]; HH-1, A73 and scrA 1, 2.5, 5 μM, Z46 0.5, 1, 2.5 μM, 6 h, plated on 16 μg/ml oxacillin, n = 3) | ftsZ mRNA levels, result in words (ftsZ mRNA [3]) | ftsZ mRNA levels, result in words (ftsZ mRNA [4]) | Concentration that inhibited growth (NCTC 13142 [5]) [µM] | Concentration that inhibited growth (HH-1 [6]) [µM] | Cell morphology after Gram stain (NCTC 13142 [7]) | Cell morphology after Gram stain (HH-1 [8])
1 | KFFKFFKFFK [(KFF)3K peptide, cell-penetrating peptide (CPP) used as PNA carrier] | 2 to 8 | – | – | – | – | – | – | – | – | – | –
2 | KFFKFFKFFK-eg1-TAACATTTAA-NH2 [Z46, anti-ftsZ PNA (−4 to +6) conjugated to the (KFF)3K peptide] | – | 87 | significantly sensitized | 95 | significantly sensitized | reduced | reduced | 7.5 | 2.5 | swollen | swollen
